Laboratory results from US4567197A, “1,3-Dioxan-5-ylalkenoic acids” (Imperial Chemical Industries PLC, priority 1982, dated 1986).

Tests used:
[1] = system: hypertensive effects of the TXA2 mimetic U46619; assay: antagonism of the hypertensive effect of U46619 in anaesthetised rats; type: in vivo, rat (Alderley Park strain); conditions: for period of significant reduction of the hypertensive effects of U46619: oral administration, dose not stated
Procedure: Male rats (Alderley Park strain) are anaesthetised with sodium pentabarbital and blood pressure is monitored at the carotid artery. The TXA2 mimetic agent known as U46619 (e.g. R. L. Jones, et alia, in "Chemistry, Biochemistry and Pharmacological Activity of Prostanoids" eds. S. M. Roberts and F. Scheinmann, at p.211; Pergamon Press, 1979) is administered intravenously via the jugular vein and an ED50 (dose necessary to produce 50% of the maximum hypertensive effect) is established (n=3). The ED50 for U46619 is approximately 5 μg/kg. A test compound is then administered either intravenously via the jugular vein or orally via a cannula directly into the stomach and the animal challenged with an ED50 dose of U46619, five minutes after dosing with test compound and then successively every ten minutes until the hypertensive effect of U46619 is no longer blocked.

[2] = system: bronchoconstriction induced in the Konzett-Rossler guinea-pig model; assay: bronchoconstriction test (c), Konzett-Rossler guinea-pig model, induced by U46619; type: in vivo; conditions: 5 mg./kg. i.v., U46619 1-1.5 μg/kg i.v.
Excerpt: (§1) As stated earlier, the compounds of formula I are antagonists of one or more of the actions of TXA2, for example certain of its actions on blood platelets, the vasculature and/or the lung.
(c) a standard bronchoconstriction test involving measuring the inhibition by a test compound of the bronchoconstriction induced in the Konzett-Rossler guinea-pig model (as modified by Collier and James, Brit. J. Pharmacol., 1967, 30, 283-307) by intravenous administration of the TXA2 mimetic agent, U46619 at 1-1.5 μg/kg.

[3] = system: rabbit aortal strip; assay: rabbit aortal strip test (a), TXA2 as agonist
Procedure: as §1
(a) The standard rabbit aortal strip model devised by Piper and Vane (Nature, 1969, 223, 29-35) using as agonist a freshly prepared sample of TXA2, generated by addition of arachidonic acid (25 μg. to citrated, platelet rich rabbit plasma (250 μl. ) and allowing the mixture to aggregate fully over 90 seconds before use;

[4] = system: citrated, platelet rich human plasma; assay: blood platelet aggregation test (b), induced by arachidonic acid; type: cell-based; conditions: aggregation induced by sub-maximal arachidonic acid (25-100 μg/ml.)
Procedure: as §1
(b) a standard blood platelet aggregation test based on that described by Born (Nature, 1962, 194, 927-929) and involving measuring the inhibition by a test compound of aggregation of citrated, platelet rich human plasma induced by a sub-maximal concentration (in the range 25-100 μg/ml.) of arachidonic acid; and […]

Row | Structure (SMILES) | period of significant reduction of the hypertensive effects of U46619 [1] | further results
1 | CCC1(CC)OC[C@@H](C/C=C\CCCC(=O)O)[C@@H](c2ccccc2)O1 (relative stereo) [Compound 1, 5(Z)-7-(2,2-diethyl-4-phenyl-1,3-dioxan-cis-5-yl)heptenoic acid] | at least 60 minutes | –
2 | O=C(O)CCC/C=C\C[C@@H]1COC2(CCCCC2)O[C@@H]1c1ccccc1 (relative stereo) [Compound 2, 5(Z)-7-(4'-phenyl-[cyclohexanespiro-2'-1,3-dioxan]-cis-5'-yl)heptenoic acid] | at least 60 minutes | –
3 | CC1(C)OC[C@@H](C/C=C\CCCC(=O)O)[C@@H](c2cccc(F)c2)O1 (relative stereo) [Compound 3] | at least 60 minutes | –
4 | COc1ccccc1[C@H]1OC(C)(C)OC[C@H]1C/C=C\CCCC(=O)O (relative stereo) [Compound 5, 5(Z)-7-[2,2-dimethyl-4-(2-methoxyphenyl)-1,3-dioxan-cis-5-yl]heptenoic acid] | at least 60 minutes | –
5 | O=C(O)CCC/C=C\C[C@@H]1CO[C@H](c2ccccc2Cl)O[C@@H]1c1ccccc1 (relative stereo) [Compound 11] | at least 60 minutes | –
6 | O=C(O)CCC/C=C\C[C@@H]1CO[C@H](c2ccc(Cl)cc2)O[C@@H]1c1ccccc1 (relative stereo) [Compound 13] | at least 60 minutes | –
7 | CC(C)[C@H]1OC[C@@H](C/C=C\CCCC(=O)O)[C@@H](c2ccccc2)O1 (relative stereo) [Compound 20] | at least 60 minutes | –
8 | O=C(O)CCC/C=C\C[C@@H]1CO[C@H](c2ccc3c(c2)OCO3)O[C@@H]1c1ccccc1 (relative stereo) [Compound 21] | at least 60 minutes | –
9 | C[C@H]1OC[C@@H](C/C=C\CCCC(=O)O)[C@@H](c2ccccc2)O1 (relative stereo) [Compound 23, 5(Z)-7-([2,4,5-cis]-2-methyl-4-phenyl-1,3-dioxan-5-yl)heptenoic acid] | at least 60 minutes | –
10 | Cc1ccccc1[C@H]1OC(C)(C)OC[C@H]1C/C=C\CCCC(=O)O (relative stereo) [Compound 24, 5(Z)-7-[2,2-dimethyl-4-(2-methylphenyl)-1,3-dioxan-cis-5-yl]heptenoic acid] | at least 60 minutes | –
11 | CC1(C)OC[C@@H](C/C=C\CCCC(=O)O)[C@@H](c2ccccc2)O1 (relative stereo) [Example 1, 5(Z)-7-(2,2-dimethyl-4-phenyl-1,3-dioxan-cis-5-yl)heptenoic acid] | – | reduction of bronchoconstriction [2]: 90%; pA2 [3]: 6.28; IC50 [4]: ~67 µM
12 | CCC1(CC)OC[C@@H](C/C=C\CCCC(=O)O)[C@@H](c2ccccc2)O1 (single isomer, unassigned) [Example 100, (-)-5(Z)-(2,2-diethyl-4-phenyl-1,3-dioxan-cis-5-yl)heptenoic acid] | – | period of significant reduction (>30%) of the hypertensive effects of U46619 ([1]; oral, 50 mg./kg.): 120 min; reduction of the hypertensive effects of U46619 ([1]; oral, 50 mg./kg., for a period of 120 minutes): > 30%
13 | CCCCC[C@H](O)/C=C/[C@@H]1[C@@H](C/C=C\CCCC(=O)O)[C@H]2CO[C@@H]1C2 [Example U46619, reference compound] | – | ED50 ([1]; Rattus norvegicus, intravenous via jugular vein, n=3, read-out: ED50 (dose necessary to produce 50% of the maximum hypertensive effect)): ~5 µg/kg
